Legend:
mGPR-40 (mFFAR1) = target: T1, mGPR-40 (mFFAR1) (Mus musculus, UniProt Q76JU9); experiment: Mouse beta-arrestin agonist assay with 1% FBS; assay type: cell-based
T1 construct: host or cells: U2OS
Excerpt: (§1) Human embryonic kidney (hEK293)-hFFAR1 cells are purchased from DiscoveRx™. Human osteosarcoma (U2OS) cells expressing mFFAR1 are developed by DiscoveRX™. These cells co-express the Prolink™ (PK)-tagged GPR-40 and the Enzyme Acceptor™ (EA)-tagged beta-arrestin fusion proteins. If activation of the GPR-40 stimulates beta-arrestin recruitment, it would force complementation of the beta galactosidase (B-gal) enzyme fragments, forming a B-gal enzyme that generates a chemiluminescent signal using the DiscoveRx PathHunter™ detection kit. Cells are incubated overnight at 5,000 cells/well in 384 well plates in culture media containing 1% FBS (fetal bovine serum). Serial diluted compound in DMSO (2× dilutions to generate 20 concentrations) are step down diluted in culture media containing 1% FBS (fetal bovine serum) and added to cells with a final top concentration starting of 100 μM. After addition of compound, cells are incubated for 90 min at 37° C. in 5% CO2 incubator, and DiscoveRX™ kit detection reagents are added. Measurement of the chemiluminescent signal is ascertained with the Envision™ reader, after a 1-hour incubation at room temperature. Data are fit to a 4 parameter-fit logistics to determine EC50 values, % activity is measured versus maximum response to an internal standard GPR-40 agonist at 1 μM.

hGPR-40 (hFFAR1) = target: T2, hGPR-40 (hFFAR1) (Homo sapiens, UniProt O14842); experiment: Human beta-arrestin agonist assay with 1% FBS; assay type: cell-based
T2 construct: host or cells: HEK293
Excerpt: as §1

Male Balb/c mice = experiment: Intraperitoneal glucose tolerance test (ipGTT); assay type: in vivo; parameters: key to Effect on blood glucose, statistical significance compared to vehicle during ipGTT: *P < 0.05; **P < 0.01; ****P < 0.0001; ns: not significant
Excerpt: To examine the ability of the compound of Example 1 to activate GPR-40 in-vivo resulting in anti-diabetic efficacy, i.e. reduction in plasma glucose levels, an intraperitoneal glucose tolerance test (ipGTT) study is completed, and the data is shown for the compound of Example 1, below in Table 7.
Male Balb/c (Albino mice) mice (8-9 weeks of age) are single housed, and fed with normal rodent chow diet and water ad libitum. Animals are weighed; randomized by body weight; and their daily body weights are recorded. On the night before the study, animals are fasted overnight. In the morning, animals are dosed orally with compound of Example 1 or vehicle alone 60 minutes prior to the glucose tolerance test (glucose 2 g/kg, i.p.). Blood glucose levels are determined from tail bleeds taken at 0, 3, 7, 15, 30, and 60 min after glucose challenge. […] Percent lowering in glucose is calculated from the AUC data of the compound with respect to the AUC of vehicle group. The compound of Example 1 is orally administered at 0.1, 0.3, 1.0, 3.0, 10, or 30 mg/kg, and a positive control (3-[4-(2-methyl-benzyloxy)-phenyl]-hex-4-ynoic acid) is administered at 10 mg/kg.

human GPR-40 = target: T3, human GPR-40 (Homo sapiens, UniProt O14842); experiment: Calcium Flux Primary Assay; assay type: cell-based
T3 construct: expressed in transfected cells; host or cells: HEK293
Experimental: HEK293 cells over expressing the human GPR-40 cDNA maintained in Dulbecco's modified Eagle's medium with F12 medium in 3:1 ratio supplemented with 10% FBS and 800 μg/ml geneticin at 37° C. and 5% CO2 are employed for the study. Agonist assays are performed using a Calcium 4 Dye assay kit (Molecular Devices) in the presence or absence of 0.1% fatty acid free BSA in the assay buffer (1×HBSS (Hank's Balanced Salt Solution) & 20 mM HEPES (4-(2-hydroxyethyl)-1-piperazineethanesulfonic acid). Receptor activation is measured as an increase in intracellular calcium using the Fluorometric Imaging Plate Reader (FLIPR). Maximum change in fluorescence over the base line is used to determine the agonist response. The EC50 value of the compound is calculated using Excel Fit software (version 4; IDBS) by plotting concentration vs relative fluorescence units (RFUs). […] (Mean±SEM; SEM=standard error of the mean.)

[1] = versus internal standard GPR-40 agonist at 1 μM

T1 sequence (Q76JU9 whole entry): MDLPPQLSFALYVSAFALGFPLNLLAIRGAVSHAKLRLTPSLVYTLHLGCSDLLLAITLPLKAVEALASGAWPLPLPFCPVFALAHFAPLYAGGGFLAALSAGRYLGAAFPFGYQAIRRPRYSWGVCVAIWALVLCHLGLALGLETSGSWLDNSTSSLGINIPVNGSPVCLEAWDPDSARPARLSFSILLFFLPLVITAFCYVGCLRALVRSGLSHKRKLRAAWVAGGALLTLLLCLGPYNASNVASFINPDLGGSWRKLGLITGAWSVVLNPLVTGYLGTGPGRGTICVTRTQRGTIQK
T1 sequence (P32121 whole entry partner): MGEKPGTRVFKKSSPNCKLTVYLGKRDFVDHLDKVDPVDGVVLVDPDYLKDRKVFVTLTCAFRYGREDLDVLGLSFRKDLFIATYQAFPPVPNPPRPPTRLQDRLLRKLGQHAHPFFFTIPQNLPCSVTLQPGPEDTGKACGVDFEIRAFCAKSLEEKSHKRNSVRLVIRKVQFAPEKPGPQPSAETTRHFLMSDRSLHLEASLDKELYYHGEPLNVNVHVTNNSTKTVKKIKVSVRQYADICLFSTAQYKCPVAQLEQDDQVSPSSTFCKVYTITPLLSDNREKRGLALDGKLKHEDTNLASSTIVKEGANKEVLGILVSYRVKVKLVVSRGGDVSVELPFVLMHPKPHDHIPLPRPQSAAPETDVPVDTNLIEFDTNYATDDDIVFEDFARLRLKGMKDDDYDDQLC
T2 sequence (O14842 whole entry): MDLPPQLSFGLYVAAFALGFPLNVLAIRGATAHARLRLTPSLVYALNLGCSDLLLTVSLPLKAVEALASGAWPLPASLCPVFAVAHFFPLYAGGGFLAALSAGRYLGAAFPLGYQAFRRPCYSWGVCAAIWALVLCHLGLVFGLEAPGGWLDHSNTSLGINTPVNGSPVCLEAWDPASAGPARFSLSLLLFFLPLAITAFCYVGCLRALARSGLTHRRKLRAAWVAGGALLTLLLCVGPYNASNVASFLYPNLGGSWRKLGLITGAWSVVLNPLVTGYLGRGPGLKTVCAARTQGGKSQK
T2 sequence (P32121 whole entry partner): as the sequence (P32121 whole entry partner) above
T3 sequence (O14842 whole entry): as the sequence (O14842 whole entry) above

SMILES: CC#C[C@@H](CC(=O)O)c1ccc(OCc2ccc3nc(-c4c(C)cccc4C)nn3c2)cc1 [Example 1, (3S)-3-[4-[[2-(2,6-Dimethylphenyl)-[1,2,4]triazolo[1,5-a]pyridin-6-yl]methoxy]phenyl]hex-4-ynoic acid]
- EC50 (mGPR-40 (mFFAR1); U2OS cells expressing mFFAR1, 1% FBS, 90 min, read-out: mGPR-40 b-arrestin EC50): 3.63 nM
- mGPR-40 b-arrestin % stimulation max (FA) (mGPR-40 (mFFAR1); [1]): 153%
- EC50 (hGPR-40 (hFFAR1); hEK293-hFFAR1 cells, 1% FBS, 90 min, read-out: hGPR-40 b-arrestin EC50): 44.8 nM
- hGPR-40 b-arrestin % stimulation max (FA) (hGPR-40 (hFFAR1); [1]): 128%
- glucose levels at the 15 minute time point (Male Balb/c mice; 30 mg/kg dose, oral): significantly lowered
- glucose levels at the 3 or 7 minute time points (Male Balb/c mice; Example 1 0.1-30 mg/kg oral, positive control 10 mg/kg): No concentration of compound of Example 1 or the positive control significantly lowered
- glucose levels at the 30 minute time point (Male Balb/c mice; Example 1 1.0, 10 and 30 mg/kg doses, positive control 10 mg/kg): significantly lowered
- glucose levels at the 60 minute time point (Male Balb/c mice; Example 1 3.0, 10 and 30 mg/kg doses, positive control 10 mg/kg): significantly lowered
- ED50 (Male Balb/c mice; Mus musculus, oral, 60 minutes prior to glucose 2 g/kg i.p., read-out: ED50 based on AUCs for glucose lowering): 7.6 mg/kg
- Effect on blood glucose, statistical significance compared to vehicle during ipGTT (Male Balb/c mice; dose 0.1 mpk oral, time 0 min): Ns
- Effect on blood glucose, statistical significance compared to vehicle during ipGTT (Male Balb/c mice; dose 0.1 mpk oral, time 3 min): ns
- Effect on blood glucose, statistical significance compared to vehicle during ipGTT (Male Balb/c mice; dose 0.1 mpk oral, time 7 min): ns
- Effect on blood glucose, statistical significance compared to vehicle during ipGTT (Male Balb/c mice; dose 0.1 mpk oral, time 15 min): Ns
- Effect on blood glucose, statistical significance compared to vehicle during ipGTT (Male Balb/c mice; dose 0.1 mpk oral, time 30 min): ns
- Effect on blood glucose, statistical significance compared to vehicle during ipGTT (Male Balb/c mice; dose 0.1 mpk oral, time 60 min): ns
- Effect on blood glucose, statistical significance compared to vehicle during ipGTT (Male Balb/c mice; dose 0.3 mpk oral, time 0 min): Ns
- Effect on blood glucose, statistical significance compared to vehicle during ipGTT (Male Balb/c mice; dose 0.3 mpk oral, time 3 min): ns
- Effect on blood glucose, statistical significance compared to vehicle during ipGTT (Male Balb/c mice; dose 0.3 mpk oral, time 7 min): ns
- Effect on blood glucose, statistical significance compared to vehicle during ipGTT (Male Balb/c mice; dose 0.3 mpk oral, time 15 min): ns
- Effect on blood glucose, statistical significance compared to vehicle during ipGTT (Male Balb/c mice; dose 0.3 mpk oral, time 30 min): ns
- Effect on blood glucose, statistical significance compared to vehicle during ipGTT (Male Balb/c mice; dose 0.3 mpk oral, time 60 min): ns
- Effect on blood glucose, statistical significance compared to vehicle during ipGTT (Male Balb/c mice; dose 1 mpk oral, time 0 min): Ns
- Effect on blood glucose, statistical significance compared to vehicle during ipGTT (Male Balb/c mice; dose 1 mpk oral, time 3 min): ns
- Effect on blood glucose, statistical significance compared to vehicle during ipGTT (Male Balb/c mice; dose 1 mpk oral, time 7 min): ns
- Effect on blood glucose, statistical significance compared to vehicle during ipGTT (Male Balb/c mice; dose 1 mpk oral, time 15 min): ns
- Effect on blood glucose, statistical significance compared to vehicle during ipGTT (Male Balb/c mice; dose 1 mpk oral, time 30 min): * (*P < 0.05)
- Effect on blood glucose, statistical significance compared to vehicle during ipGTT (Male Balb/c mice; dose 1 mpk oral, time 60 min): ns
- Effect on blood glucose, statistical significance compared to vehicle during ipGTT (Male Balb/c mice; dose 3 mpk oral, time 0 min): Ns
- Effect on blood glucose, statistical significance compared to vehicle during ipGTT (Male Balb/c mice; dose 3 mpk oral, time 3 min): ns
- Effect on blood glucose, statistical significance compared to vehicle during ipGTT (Male Balb/c mice; dose 3 mpk oral, time 7 min): ns
- Effect on blood glucose, statistical significance compared to vehicle during ipGTT (Male Balb/c mice; dose 3 mpk oral, time 15 min): ns
- Effect on blood glucose, statistical significance compared to vehicle during ipGTT (Male Balb/c mice; dose 3 mpk oral, time 30 min): ns
- Effect on blood glucose, statistical significance compared to vehicle during ipGTT (Male Balb/c mice; dose 3 mpk oral, time 60 min): ** (**P < 0.01)
- Effect on blood glucose, statistical significance compared to vehicle during ipGTT (Male Balb/c mice; dose 10 mpk oral, time 0 min): Ns
- Effect on blood glucose, statistical significance compared to vehicle during ipGTT (Male Balb/c mice; dose 10 mpk oral, time 3 min): ns
- Effect on blood glucose, statistical significance compared to vehicle during ipGTT (Male Balb/c mice; dose 10 mpk oral, time 7 min): ns
- Effect on blood glucose, statistical significance compared to vehicle during ipGTT (Male Balb/c mice; dose 10 mpk oral, time 15 min): ns
- Effect on blood glucose, statistical significance compared to vehicle during ipGTT (Male Balb/c mice; dose 10 mpk oral, time 30 min): **** (****P < 0.0001)
- Effect on blood glucose, statistical significance compared to vehicle during ipGTT (Male Balb/c mice; dose 10 mpk oral, time 60 min): **** (****P < 0.0001)
- Effect on blood glucose, statistical significance compared to vehicle during ipGTT (Male Balb/c mice; dose 30 mpk oral, time 0 min): Ns
- Effect on blood glucose, statistical significance compared to vehicle during ipGTT (Male Balb/c mice; dose 30 mpk oral, time 3 min): ns
- Effect on blood glucose, statistical significance compared to vehicle during ipGTT (Male Balb/c mice; dose 30 mpk oral, time 7 min): ns
- Effect on blood glucose, statistical significance compared to vehicle during ipGTT (Male Balb/c mice; dose 30 mpk oral, time 15 min): ** (**P < 0.01)
- Effect on blood glucose, statistical significance compared to vehicle during ipGTT (Male Balb/c mice; dose 30 mpk oral, time 30 min): **** (****P < 0.0001)
- Effect on blood glucose, statistical significance compared to vehicle during ipGTT (Male Balb/c mice; dose 30 mpk oral, time 60 min): **** (****P < 0.0001)
- EC50 (human GPR-40; HEK293 cells over expressing human GPR-40, intracellular calcium, FLIPR): 119 nM
- efficacy (human GPR-40; maximal response compared to natural ligand linoleic acid): 76%
